Reference: publication PMC8263924 (The Journal of General Physiology, 2021)
Numbering of substitutions follows the chain as printed. Where two headings read alike, the source gives them in different places.

Experiments:
Hv1 F150A = target: T1, Hv1 F150A (Homo sapiens, UniProt Q96D96, F150A); test: Inhibition of proton currents, inside-out patch clamp, Hv1 F150A; format: cell-based
T1 sequence (Q96D96 1-273 F150A): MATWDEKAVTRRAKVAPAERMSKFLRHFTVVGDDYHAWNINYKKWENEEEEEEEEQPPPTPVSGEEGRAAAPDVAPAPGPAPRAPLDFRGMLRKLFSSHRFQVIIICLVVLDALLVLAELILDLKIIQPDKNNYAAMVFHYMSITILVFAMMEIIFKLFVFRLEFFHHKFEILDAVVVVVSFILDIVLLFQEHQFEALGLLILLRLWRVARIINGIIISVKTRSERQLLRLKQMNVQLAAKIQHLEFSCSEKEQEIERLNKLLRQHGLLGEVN

Hv1 WT [1] = target: T2, Hv1 WT (Homo sapiens, UniProt Q96D96); format: cell-based; conditions: for IC50: IC50 ± SE, inside-out patch, +120 mV, pHin = pHout = 6.0; for Inhibition of Hv1 WT (comparison of potency): compounds tested at 50 µM, Fig. 5 E
T2 sequence (Q96D96 1-273): T1 sequence (Q96D96 1-273 F150A) with A150F

[2] = Solubility in recording solution; format: physicochemical; conditions: concentrations >1 mM
Hv1 WT [3] = target: T2, Hv1 WT; conditions: dimeric Hv1; ref Hong et al., 2015; cited from earlier work

SMILES	IC50 (Hv1 F150A) [µM]	IC50 (Hv1 WT [1]; Hv1 WT) [µM]	other results
N=C(N)Nc1nc2ccccc2s1 [GBTA, 2-guanidino-benzothiazole]	–	–	Hill coefficient (Hv1 WT [3]): > 1
Cc1[nH]c(N)nc1CCC(=O)c1cc(F)cc(F)c1.Cl [HIF, 3-(2-amino-5-methyl-1H-imidazol-4-yl)-1-(3,5-difluorophenyl)propan-1-one hydrochloride]	–	13 ± 1	IC50,HIFNF/IC50,HIF (Hv1 F150A; Hv1 F150A): ~7.0; IC50,HIFNF/IC50,HIF (Hv1 WT [1]; Hv1 WT): ~5.4
Cc1[nH]c(N)nc1/C=C/C(=O)c1cc(F)cc(F)c1.Cl [HIFEN, (2E)-3-(2-amino-5-methyl-1H-imidazol-4-yl)-1-(3,5-difluorophenyl)prop-2-en-1-one hydrochloride]	–	–	h ± SE (Hill coefficient) (Hv1 WT [1]; Hv1 WT (dimeric), fit with Hill equation): ~1.5; Inhibition of Hv1 WT (comparison of potency) (Hv1 WT [1]; 50 µM): slightly more potent than HIF
Cc1[nH]c(N)nc1CCC(=O)c1ccccc1.Cl [HIFNF, 3-(2-amino-5-methyl-1H-imidazol-4-yl)-1-phenylpropan-1-one hydrochloride]	–	–	IC50,ABI/IC50,HIFNF (Hv1 F150A; Hv1 F150A): ~0.05; IC50,ABI/IC50,HIFNF (Hv1 WT [1]; Hv1 WT): ~7.7
Cc1[nH]c(N)nc1CCC(O)c1cc(F)cc(F)c1.Cl (stereo not shown) [HIFOH, 3-(2-amino-5-methyl-1H-imidazol-4-yl)-1-(3,5-difluorophenyl)propan-1-ol hydrochloride]	–	–	Inhibition of Hv1 WT (comparison of potency) (Hv1 WT [1]): less effective at reducing the proton current than HIF, HIFNH, and HIFEN

The next lines start with results.

IC50 (Hv1 F150A) [µM]	IC50 (Hv1 WT [1]; Hv1 WT) [µM]	SMILES	other results
0.018 ± 0.001	553 ± 43	Nc1nc2ccccc2[nH]1 [ABI, 2-aminobenzimidazole]	Inhibition of Hv1 F150A (comparison with ABTA) (Hv1 F150A; ABI at 100 nM versus ABTA at 500 nM): much larger inhibition than ABTA; Inhibition of Hv1 F150A (Hv1 F150A; at 500 nM): saturated
0.012 ± 0.001	244 ± 19	Nc1nc2cc(F)c(F)cc2[nH]1 [ABIF2, 5,6-difluoro-1H-1,3-benzodiazol-2-amine]	–
0.093 ± 0.006	699 ± 45	Nc1nc2c(F)c(F)c(F)cc2[nH]1 [ABIF3, 4,5,6-trifluoro-1H-1,3-benzodiazol-2-amine]	Solubility under tested conditions [2]: not soluble at higher concentrations
0.04 ± 0.001	729 ± 56	Nc1nc2c(F)cccc2[nH]1 [ABIFα, 4-fluoro-1H-1,3-benzodiazol-2-amine]	–
0.013 ± 0.001	312 ± 17	Nc1nc2cc(F)ccc2[nH]1 [ABIFβ, 6-fluoro-1H-1,3-benzodiazol-2-amine]	–
